PubChem BioAssay AID330 (DTP/NCI, 2004)
Several values for one entry are separate records, joined by “and”; a condition that tells them apart may be missing. Equal values may be shown once. Inconclusive results and toxic doses are left out. How the source made its calls: active means survival T/C of 150% or more; inactive means T/C below 125% in these data.

Test system: P388 leukemia ip, CD2F1 mice, survival T/C
Assay: NCI In Vivo Anticancer Drug Screen. Data for tumor model P388 Leukemia (intraperitoneal) in CD2F1 (CDF1) mice
Details: endpoint: median survival time, higher = longer survival
Procedure, shortened: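 Mice carrying the transplanted tumor received test compound or vehicle. Survival was recorded in each group, and the value is the treated-group measurement divided by that of the vehicle-treated control group.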

[1] = dose: 50.0 mg/kg/injection, schedule: Q01DX009 (ip), vehicle: Klucel (hydroxypropylcellulose) (HPC)
[2] = dose: 100.0 mg/kg/injection, schedule: Q01DX009 (ip), vehicle: Klucel (hydroxypropylcellulose) (HPC)
[3] = dose: 200.0 mg/kg/injection, schedule: Q01DX009 (ip), vehicle: Klucel (hydroxypropylcellulose) (HPC)
[4] = dose: 50.0 mg/kg/injection, schedule: Q01DX005 (ip), vehicle: Klucel (hydroxypropylcellulose) (HPC)
[5] = dose: 100.0 mg/kg/injection, schedule: Q01DX005 (ip), vehicle: Klucel (hydroxypropylcellulose) (HPC)
[6] = dose: 50.0 mg/kg/injection, schedule: Q01DX009 (ip), vehicle: saline with Tween-80
[7] = dose: 100.0 mg/kg/injection, schedule: Q01DX009 (ip), vehicle: saline with Tween-80
[8] = dose: 50.0 mg/kg/injection, schedule: Q01DX009 (ip), vehicle: saline
[9] = dose: 100.0 mg/kg/injection, schedule: Q01DX009 (ip), vehicle: saline
[10] = dose: 200.0 mg/kg/injection, schedule: Q01DX009 (ip), vehicle: saline
[11] = dose: 50.0 mg/kg/injection, schedule: Q01DX005 (ip), vehicle: saline with Tween-80
[12] = dose: 200.0 mg/kg/injection, schedule: Q01DX005 (ip), vehicle: Klucel (hydroxypropylcellulose) (HPC)
[13] = dose: 60.0 mg/kg/injection, schedule: Q01DX005 (ip), vehicle: saline with Tween-80
[14] = dose: 120.0 mg/kg/injection, schedule: Q01DX005 (ip), vehicle: saline with Tween-80
[15] = dose: 240.0 mg/kg/injection, schedule: Q01DX005 (ip), vehicle: saline with Tween-80

Measured: T/C

O=C1C=C(C2OC(CI)C(O)C2O)C(=O)N1 (stereo not drawn)
inactive: dose: 1.56 mg/kg/injection, schedule: Q01DX009 (ip), vehicle: water 113 % of control | dose: 3.13 mg/kg/injection, schedule: Q01DX009 (ip), vehicle: water 112 % of control | dose: 6.25 mg/kg/injection, schedule: Q01DX009 (ip), vehicle: water 118 % of control | dose: 12.5 mg/kg/injection, schedule: Q01DX009 (ip), vehicle: water 109 % of control | dose: 25.0 mg/kg/injection, schedule: Q01DX009 (ip), vehicle: water 118 % of control

CO/C=C(\C(=O)OC)c1ccccc1
inactive: [1] 100 % of control | [2] 106 % of control | [3] 106 % of control

CC(C)c1ccc(/C=N\NC(=S)N/N=C\c2ccc(C(C)C)cc2)cc1
inactive: dose: 6.25 mg/kg/injection, schedule: Q01DX009 (ip), vehicle: Klucel (hydroxypropylcellulose) (HPC) 96 % of control | dose: 12.5 mg/kg/injection, schedule: Q01DX009 (ip), vehicle: Klucel (hydroxypropylcellulose) (HPC) 86 % of control

O=P(O/C(=C\c1ccccc1)c1ccccc1)(c1ccccc1)c1ccccc1
inactive: dose: 60.0 mg/kg/injection, schedule: Q01DX005 (ip), vehicle: Klucel (hydroxypropylcellulose) (HPC) 91 % of control | dose: 120.0 mg/kg/injection, schedule: Q01DX005 (ip), vehicle: Klucel (hydroxypropylcellulose) (HPC) 90 % of control | dose: 240.0 mg/kg/injection, schedule: Q01DX005 (ip), vehicle: Klucel (hydroxypropylcellulose) (HPC) 90 % of control

C=C(C)C(=NC1CCCCC1)NC(C)(C)C
inactive: dose: 25.0 mg/kg/injection, schedule: Q01DX005 (ip), vehicle: Klucel (hydroxypropylcellulose) (HPC) 99 % of control | [4] 100 % of control | [5] 99 % of control and 102 % of control

COc1cc(O)c(C(c2ccccc2)c2c(O)c(C)c(O)c3c2OC(c2ccccc2)CC3=O)c(O)c1C (stereo not drawn)
inactive: dose: 5.0 mg/kg/injection, schedule: Q01DX009 (ip), vehicle: Klucel (hydroxypropylcellulose) (HPC) 99 % of control | dose: 10.0 mg/kg/injection, schedule: Q01DX009 (ip), vehicle: Klucel (hydroxypropylcellulose) (HPC) 99 % of control | dose: 20.0 mg/kg/injection, schedule: Q01DX009 (ip), vehicle: Klucel (hydroxypropylcellulose) (HPC) 103 % of control | dose: 40.0 mg/kg/injection, schedule: Q01DX009 (ip), vehicle: Klucel (hydroxypropylcellulose) (HPC) 99 % of control

CC(=O)OC(C)(C)/C=C/C(=O)[C@](C)(O)[C@H]1[C@H](O)C[C@@]2(C)[C@@H]3CC=C4[C@@H](CC[C@H](O)C4(C)C)[C@]3(CO)C(=O)C[C@]12C
inactive: dose: 0.6 mg/kg/injection, schedule: Q01DX009 (ip), vehicle: saline sonified 100 % of control | dose: 1.2 mg/kg/injection, schedule: Q01DX009 (ip), vehicle: saline sonified 100 % of control | dose: 2.4 mg/kg/injection, schedule: Q01DX009 (ip), vehicle: saline sonified 116 % of control

COc1ccc(-c2cc(C(=O)O)c3cc4ccccc4cc3n2)cc1Br
inactive: [6] 94 % of control | [7] 93 % of control and 97 % of control | dose: 200.0 mg/kg/injection, schedule: Q01DX009 (ip), vehicle: saline with Tween-80 105 % of control and 87 % of control | dose: 400.0 mg/kg/injection, schedule: Q01DX009 (ip), vehicle: saline with Tween-80 121 % of control and 89 % of control | dose: 600.0 mg/kg/injection, schedule: Q01DX009 (ip), vehicle: saline with Tween-80 101 % of control

CC1(C)NC(=S)N(O)C1(C)C
inactive: [8] 111 % of control | [9] 98 % of control

CCCCCCCCOC(=O)NCCCCC(N)C(=O)O (stereo not drawn)
inactive: [8] 87 % of control | [9] 101 % of control | [10] 103 % of control

Clc1cccnc1Cl
inactive: [8] 100 % of control and 110 % of control | [9] 103 % of control and 105 % of control | [10] 99 % of control and 106 % of control | dose: 400.0 mg/kg/injection, schedule: Q01DX009 (ip), vehicle: saline 97 % of control

C=CCn1cc2c3c(cccc31)C1CC(C)CN(C)C1C2 (stereo not drawn)
inactive: [11] 99 % of control | dose: 100.0 mg/kg/injection, schedule: Q01DX005 (ip), vehicle: saline with Tween-80 111 % of control

CC(C)N(CCCO)CCCO
inactive: [8] 97 % of control | [9] 93 % of control | [10] 102 % of control

CC[As](CC)SC1CC2C3CCC4=CC(=O)C=CC4(C)C3C(=O)CC2(C)C1C(=O)CC(C)=O (stereo not drawn)
inactive: [4] 101 % of control | [5] 103 % of control | [12] 94 % of control

Cc1ccc(I)c(C(C)(C)O)c1
inactive: [1] 100 % of control | [2] 95 % of control | [3] 97 % of control

COC(=O)c1c2c(nc3ccccc13)-c1ccccc1C(C)(C)C2
inactive: [4] 92 % of control | [5] 95 % of control | [12] 96 % of control

OC1c2cccn2-c2cc(Cl)ccc2SC1c1ccccc1 (stereo not drawn)
inactive: [13] 99 % of control | [14] 101 % of control | [15] 100 % of control

Cc1ccc(Nc2nnc(CSc3ccc(Cl)cc3)s2)c(S(=O)(=O)O)c1
inactive: [13] 104 % of control | [14] 94 % of control | [15] 104 % of control

COc1ccc(CC(NC(=O)NSc2ccccc2)C(=O)NC2C(CO)OC(n3cnc4c(N(C)C)ncnc43)C2O)cc1 (stereo not drawn)
inactive: dose: 12.5 mg/kg/injection, schedule: Q01DX005 (ip), vehicle: saline with Tween-80 90 % of control | dose: 25.0 mg/kg/injection, schedule: Q01DX005 (ip), vehicle: saline with Tween-80 93 % of control | [11] 88 % of control and 91 % of control

O=C(SCc1ccccc1)c1cccnc1
inactive: dose: 25.0 mg/kg/injection, schedule: Q01DX009 (ip), vehicle: saline with Tween-80 105 % of control | [6] 110 % of control | [7] 100 % of control

CCN(CC)C(C)(C)C(=O)/C=C/c1ccc(C)cc1
inactive: [13] 107 % of control | [14] 103 % of control

FC(F)(F)C1(C(F)(F)F)O[Si]2(OC(C(F)(F)F)(C(F)(F)F)c3ccccc32)c2ccccc21 (tested in a mixture with another compound)
inactive: dose: 25.0 mg/kg/injection, schedule: Q04DX002 (ip), vehicle: Klucel (hydroxypropylcellulose) (HPC) 109 % of control | dose: 50.0 mg/kg/injection, schedule: Q04DX002 (ip), vehicle: Klucel (hydroxypropylcellulose) (HPC) 94 % of control | dose: 100.0 mg/kg/injection, schedule: Q04DX002 (ip), vehicle: Klucel (hydroxypropylcellulose) (HPC) 100 % of control and 102 % of control

CC(C)C(=O)NCc1ccccc1Sc1ccccc1CNC(=O)C(C)C
inactive: dose: 100.0 mg/kg/injection, schedule: Q04DX002 (ip), vehicle: saline with Tween-80 90 % of control | dose: 200.0 mg/kg/injection, schedule: Q04DX002 (ip), vehicle: saline with Tween-80 90 % of control | dose: 400.0 mg/kg/injection, schedule: Q04DX002 (ip), vehicle: saline with Tween-80 91 % of control

C=CC1CCCC[N+]1(C)Cc1ccccc1 (stereo not drawn)
inactive: dose: 6.25 mg/kg/injection, schedule: Q01DX005 (ip), vehicle: saline 94 % of control | dose: 12.5 mg/kg/injection, schedule: Q01DX005 (ip), vehicle: saline 98 % of control

O=C1CCCC2C3CCCN4CCCC(CN12)C34 (stereo not drawn)
inactive: dose: 3.12 mg/kg/injection, schedule: Q01DX007 (ip), vehicle: carboxymethylcellulose (CMC) 100 % of control | dose: 5.0 mg/kg/injection, schedule: Q01DX009 (ip), vehicle: saline 98 % of control | dose: 6.2 mg/kg/injection, schedule: Q01DX007 (ip), vehicle: carboxymethylcellulose (CMC) 100 % of control | dose: 6.25 mg/kg/injection, schedule: Q01DX007 (ip), vehicle: carboxymethylcellulose (CMC) 100 % of control | dose: 10.0 mg/kg/injection, schedule: Q01DX009 (ip), vehicle: saline 100 % of control and 94 % of control | dose: 12.5 mg/kg/injection, schedule: Q01DX007 (ip), vehicle: carboxymethylcellulose (CMC) 91 % of control | dose: 20.0 mg/kg/injection, schedule: Q01DX009 (ip), vehicle: saline 100 % of control and 110 % of control and 95 % of control | dose: 23.0 mg/kg/injection, schedule: Q01DX007 (ip), vehicle: carboxymethylcellulose (CMC) 100 % of control | dose: 25.0 mg/kg/injection, schedule: Q01DX007 (ip), vehicle: carboxymethylcellulose (CMC) 91 % of control | dose: 40.0 mg/kg/injection, schedule: Q01DX009 (ip), vehicle: saline 102 % of control and 117 % of control and 95 % of control | dose: 80.0 mg/kg/injection, schedule: Q01DX009 (ip), vehicle: saline 98 % of control and 110 % of control and 122 % of control | dose: 160.0 mg/kg/injection, schedule: Q01DX009 (ip), vehicle: saline 102 % of control and 119 % of control

CC[C@@]1(C(N)=O)CC2C=CC1C2 (stereo partly drawn)
inactive: [4] 94 % of control | [5] 90 % of control | [12] 96 % of control
